Measurements taken from ChEMBL document CHEMBL4507297, “Data for DCP probe PF-04457845” (2021).

Assays:
[1] = system: Tyrosine-protein kinase ABL1 (Homo sapiens), P00519 [T315I]; conditions: Compound concentration 1000.0 nM
[2] = target: Atypical kinase COQ8B, mitochondrial (Homo sapiens) (UniProt Q96D53); conditions: Compound concentration 1000.0 nM
[3] = target: BMP-2-inducible protein kinase (Homo sapiens) (UniProt Q9NSY1); conditions: Compound concentration 1000.0 nM
[4] = target: Cytoplasmic tyrosine-protein kinase BMX (Homo sapiens) (UniProt P51813); conditions: Compound concentration 1000.0 nM
[5] = target: Mitogen-activated protein kinase 1 (Homo sapiens) (UniProt P28482); conditions: Compound concentration 1000.0 nM
[6] = system: Receptor-type tyrosine-protein kinase FLT3 (Homo sapiens), P36888 [D835H]; conditions: Compound concentration 1000.0 nM
[7] = target: G protein-coupled receptor kinase 4 (Homo sapiens) (UniProt P32298); conditions: Compound concentration 1000.0 nM
[8] = target: Tyrosine-protein kinase HCK (Homo sapiens) (UniProt P08631); conditions: Compound concentration 1000.0 nM
[9] = target: Homeodomain-interacting protein kinase 3 (Homo sapiens) (UniProt Q9H422); conditions: Compound concentration 1000.0 nM
[10] = target: Serine/threonine-protein kinase ICK (Homo sapiens) (UniProt Q9UPZ9); conditions: Compound concentration 1000.0 nM
[11] = system: Mast/stem cell growth factor receptor Kit (Homo sapiens), P10721 [V559D]; conditions: Compound concentration 1000.0 nM
[12] = target: Tyrosine-protein kinase Lck (Homo sapiens) (UniProt P06239); conditions: Compound concentration 1000.0 nM
[13] = target: Serine/threonine-protein kinase 10 (Homo sapiens) (UniProt O94804); conditions: Compound concentration 1000.0 nM
[14] = system: Leucine-rich repeat serine/threonine-protein kinase 2 (Homo sapiens), Q5S007 [G2019S]; conditions: Compound concentration 1000.0 nM
[15] = target: Mitogen-activated protein kinase kinase kinase 1 (Homo sapiens) (UniProt Q13233); conditions: Compound concentration 1000.0 nM
[16] = target: Serine/threonine-protein kinase MRCK alpha (Homo sapiens) (UniProt Q5VT25); conditions: Compound concentration 1000.0 nM
[17] = target: Myosin-IIIa (Homo sapiens) (UniProt Q8NEV4); conditions: Compound concentration 1000.0 nM
[18] = target: Serine/threonine-protein kinase Nek10 (Homo sapiens) (UniProt Q6ZWH5); conditions: Compound concentration 1000.0 nM
[19] = target: Serine/threonine-protein kinase Nek11 (Homo sapiens) (UniProt Q8NG66); conditions: Compound concentration 1000.0 nM
[20] = target: Serine/threonine-protein kinase Nek9 (Homo sapiens) (UniProt Q8TD19); conditions: Compound concentration 1000.0 nM
[21] = target: Serine/threonine-protein kinase NLK (Homo sapiens) (UniProt Q9UBE8); conditions: Compound concentration 1000.0 nM
[22] = target: Serine/threonine-protein kinase PAK 4 (Homo sapiens) (UniProt O96013); conditions: Compound concentration 1000.0 nM
[23] = target: Cyclin-dependent kinase 16 (Homo sapiens) (UniProt Q00536); conditions: Compound concentration 1000.0 nM
[24] = target: Phosphatidylinositol 4-phosphate 3-kinase C2 domain-containing subunit beta (Homo sapiens) (UniProt O00750); conditions: Compound concentration 1000.0 nM
[25] = target: Serine/threonine-protein kinase pim-1 (Homo sapiens) (UniProt P11309); conditions: Compound concentration 1000.0 nM
[26] = target: Phosphatidylinositol 4-phosphate 5-kinase type-1 gamma (Homo sapiens) (UniProt O60331); conditions: Compound concentration 1000.0 nM
[27] = target: cGMP-dependent protein kinase 1 (Homo sapiens) (UniProt Q13976); conditions: Compound concentration 1000.0 nM
[28] = target: cAMP-dependent protein kinase catalytic subunit PRKX (Homo sapiens) (UniProt P51817); conditions: Compound concentration 1000.0 nM
[29] = target: Dual serine/threonine and tyrosine protein kinase (Homo sapiens) (UniProt Q6XUX3); conditions: Compound concentration 1000.0 nM
[30] = target: Ribosomal protein S6 kinase alpha-5 (Homo sapiens) (UniProt O75582); conditions: Compound concentration 1000.0 nM
[31] = target: Ribosomal protein S6 kinase alpha-3 (Homo sapiens) (UniProt P51812); conditions: Compound concentration 1000.0 nM
[32] = target: Serine/threonine-protein kinase TAO3 (Homo sapiens) (UniProt Q9H2K8); conditions: Compound concentration 1000.0 nM
[33] = target: Non-receptor tyrosine-protein kinase TYK2 (Homo sapiens) (UniProt P29597); conditions: Compound concentration 1000.0 nM
[34] = target: Serine/threonine-protein kinase WNK2 (Homo sapiens) (UniProt Q9Y3S1); conditions: Compound concentration 1000.0 nM
[35] = target: Tyrosine-protein kinase ZAP-70 (Homo sapiens) (UniProt P43403); conditions: Compound concentration 1000.0 nM
[36] = target: 5-hydroxytryptamine receptor 1D (Homo sapiens) (UniProt P28221); conditions: Compound concentration 10.0 uM
[37] = target: T1, 5-hydroxytryptamine receptor 2C (Homo sapiens) (UniProt P28335); conditions: Compound concentration 10.0 uM
T1 sequence (whole entry): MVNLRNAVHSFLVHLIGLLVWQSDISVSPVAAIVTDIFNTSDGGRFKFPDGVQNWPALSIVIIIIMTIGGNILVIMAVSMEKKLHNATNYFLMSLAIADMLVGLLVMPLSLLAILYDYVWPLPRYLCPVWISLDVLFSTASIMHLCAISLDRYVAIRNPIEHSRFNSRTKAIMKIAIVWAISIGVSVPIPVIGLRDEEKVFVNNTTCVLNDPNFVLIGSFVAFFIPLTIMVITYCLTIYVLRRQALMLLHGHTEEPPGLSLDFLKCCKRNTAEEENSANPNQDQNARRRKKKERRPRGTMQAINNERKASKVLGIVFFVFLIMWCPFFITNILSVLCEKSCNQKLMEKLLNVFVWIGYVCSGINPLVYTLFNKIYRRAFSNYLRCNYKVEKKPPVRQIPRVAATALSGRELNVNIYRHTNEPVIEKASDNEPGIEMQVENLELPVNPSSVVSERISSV

[38] = target: Muscarinic acetylcholine receptor M3 (Homo sapiens) (UniProt P20309); conditions: Compound concentration 10.0 uM
[39] = target: Muscarinic acetylcholine receptor M5 (Homo sapiens) (UniProt P08912); conditions: Compound concentration 10.0 uM

Sequence of 5-hydroxytryptamine receptor 1D (Homo sapiens) (P28221 whole entry): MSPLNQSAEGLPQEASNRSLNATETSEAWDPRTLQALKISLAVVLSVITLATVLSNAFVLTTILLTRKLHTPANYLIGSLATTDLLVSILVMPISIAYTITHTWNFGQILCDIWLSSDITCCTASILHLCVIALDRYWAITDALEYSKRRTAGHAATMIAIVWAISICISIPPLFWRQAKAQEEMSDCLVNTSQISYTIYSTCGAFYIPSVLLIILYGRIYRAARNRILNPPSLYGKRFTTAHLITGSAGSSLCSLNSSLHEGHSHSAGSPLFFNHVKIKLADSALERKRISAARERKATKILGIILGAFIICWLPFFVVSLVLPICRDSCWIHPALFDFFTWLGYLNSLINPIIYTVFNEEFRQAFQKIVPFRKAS
Sequence of Serine/threonine-protein kinase Nek9 (Homo sapiens) (Q8TD19 whole entry): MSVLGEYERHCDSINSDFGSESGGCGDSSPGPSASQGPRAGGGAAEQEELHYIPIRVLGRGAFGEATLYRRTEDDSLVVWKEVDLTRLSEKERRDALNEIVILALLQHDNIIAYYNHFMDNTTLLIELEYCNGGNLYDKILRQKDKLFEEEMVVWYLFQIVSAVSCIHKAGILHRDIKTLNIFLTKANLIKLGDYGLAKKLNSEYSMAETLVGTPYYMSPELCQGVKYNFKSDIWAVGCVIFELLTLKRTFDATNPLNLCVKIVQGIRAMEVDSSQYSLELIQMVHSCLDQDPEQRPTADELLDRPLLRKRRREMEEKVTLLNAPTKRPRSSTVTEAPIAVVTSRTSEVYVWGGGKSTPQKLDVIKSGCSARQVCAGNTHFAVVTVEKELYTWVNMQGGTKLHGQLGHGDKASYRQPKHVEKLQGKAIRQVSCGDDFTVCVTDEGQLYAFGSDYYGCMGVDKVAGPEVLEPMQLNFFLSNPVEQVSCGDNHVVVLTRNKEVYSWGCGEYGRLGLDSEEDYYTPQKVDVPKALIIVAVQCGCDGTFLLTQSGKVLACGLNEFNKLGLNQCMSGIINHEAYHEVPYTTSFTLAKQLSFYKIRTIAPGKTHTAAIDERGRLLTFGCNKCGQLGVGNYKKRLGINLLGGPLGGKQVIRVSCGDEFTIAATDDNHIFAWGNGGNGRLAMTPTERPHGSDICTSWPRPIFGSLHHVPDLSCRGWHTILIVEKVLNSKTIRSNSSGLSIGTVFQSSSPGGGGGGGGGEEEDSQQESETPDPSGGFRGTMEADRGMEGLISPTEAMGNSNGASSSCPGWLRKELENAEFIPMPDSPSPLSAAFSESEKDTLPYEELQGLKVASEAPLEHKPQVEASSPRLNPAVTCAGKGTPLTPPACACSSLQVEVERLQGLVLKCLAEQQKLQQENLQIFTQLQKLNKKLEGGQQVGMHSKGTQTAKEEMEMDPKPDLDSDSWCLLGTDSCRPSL
Sequence of Serine/threonine-protein kinase pim-1 (Homo sapiens) (P11309 whole entry, looked up): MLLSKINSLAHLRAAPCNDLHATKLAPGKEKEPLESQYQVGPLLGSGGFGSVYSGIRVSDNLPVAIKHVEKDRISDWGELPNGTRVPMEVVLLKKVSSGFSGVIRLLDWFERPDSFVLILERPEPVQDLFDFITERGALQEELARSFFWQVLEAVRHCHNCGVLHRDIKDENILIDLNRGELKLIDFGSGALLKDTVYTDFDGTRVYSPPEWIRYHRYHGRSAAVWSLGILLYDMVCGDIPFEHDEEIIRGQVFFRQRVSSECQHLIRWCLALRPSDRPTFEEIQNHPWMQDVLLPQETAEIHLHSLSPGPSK
Sequence of Non-receptor tyrosine-protein kinase TYK2 (Homo sapiens) (P29597 whole entry): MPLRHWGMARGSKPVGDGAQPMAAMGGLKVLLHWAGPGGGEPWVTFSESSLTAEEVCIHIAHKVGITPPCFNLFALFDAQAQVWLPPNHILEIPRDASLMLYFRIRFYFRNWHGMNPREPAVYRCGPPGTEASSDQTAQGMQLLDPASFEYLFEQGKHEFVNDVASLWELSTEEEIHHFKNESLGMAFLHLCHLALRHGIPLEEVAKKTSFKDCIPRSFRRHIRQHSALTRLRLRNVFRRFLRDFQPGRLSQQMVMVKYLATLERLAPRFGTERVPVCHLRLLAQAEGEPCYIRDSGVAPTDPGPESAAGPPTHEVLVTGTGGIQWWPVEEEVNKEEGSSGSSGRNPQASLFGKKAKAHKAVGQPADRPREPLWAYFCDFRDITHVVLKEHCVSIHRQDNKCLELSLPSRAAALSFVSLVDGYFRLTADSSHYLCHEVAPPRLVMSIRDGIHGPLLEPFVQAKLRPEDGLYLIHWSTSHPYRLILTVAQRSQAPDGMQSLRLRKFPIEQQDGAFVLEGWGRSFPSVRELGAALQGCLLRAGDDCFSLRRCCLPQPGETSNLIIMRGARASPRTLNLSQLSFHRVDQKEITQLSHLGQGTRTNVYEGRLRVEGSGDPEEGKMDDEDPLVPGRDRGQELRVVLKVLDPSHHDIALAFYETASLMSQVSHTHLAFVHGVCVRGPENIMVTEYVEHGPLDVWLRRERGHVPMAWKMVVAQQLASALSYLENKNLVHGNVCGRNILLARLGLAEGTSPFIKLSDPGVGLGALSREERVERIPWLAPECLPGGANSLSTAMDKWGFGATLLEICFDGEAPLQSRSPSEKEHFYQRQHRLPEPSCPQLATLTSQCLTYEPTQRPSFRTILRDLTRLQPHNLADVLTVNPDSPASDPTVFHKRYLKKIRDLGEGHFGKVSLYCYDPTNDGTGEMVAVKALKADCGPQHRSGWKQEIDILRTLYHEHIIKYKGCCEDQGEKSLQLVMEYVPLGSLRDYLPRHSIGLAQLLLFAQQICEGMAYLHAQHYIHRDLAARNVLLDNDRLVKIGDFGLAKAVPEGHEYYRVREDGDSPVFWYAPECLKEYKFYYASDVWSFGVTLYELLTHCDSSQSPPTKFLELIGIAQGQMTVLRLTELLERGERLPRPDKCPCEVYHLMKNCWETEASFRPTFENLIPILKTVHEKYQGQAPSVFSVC
Sequence of Phosphatidylinositol 4-phosphate 5-kinase type-1 gamma (Homo sapiens) (O60331 whole entry): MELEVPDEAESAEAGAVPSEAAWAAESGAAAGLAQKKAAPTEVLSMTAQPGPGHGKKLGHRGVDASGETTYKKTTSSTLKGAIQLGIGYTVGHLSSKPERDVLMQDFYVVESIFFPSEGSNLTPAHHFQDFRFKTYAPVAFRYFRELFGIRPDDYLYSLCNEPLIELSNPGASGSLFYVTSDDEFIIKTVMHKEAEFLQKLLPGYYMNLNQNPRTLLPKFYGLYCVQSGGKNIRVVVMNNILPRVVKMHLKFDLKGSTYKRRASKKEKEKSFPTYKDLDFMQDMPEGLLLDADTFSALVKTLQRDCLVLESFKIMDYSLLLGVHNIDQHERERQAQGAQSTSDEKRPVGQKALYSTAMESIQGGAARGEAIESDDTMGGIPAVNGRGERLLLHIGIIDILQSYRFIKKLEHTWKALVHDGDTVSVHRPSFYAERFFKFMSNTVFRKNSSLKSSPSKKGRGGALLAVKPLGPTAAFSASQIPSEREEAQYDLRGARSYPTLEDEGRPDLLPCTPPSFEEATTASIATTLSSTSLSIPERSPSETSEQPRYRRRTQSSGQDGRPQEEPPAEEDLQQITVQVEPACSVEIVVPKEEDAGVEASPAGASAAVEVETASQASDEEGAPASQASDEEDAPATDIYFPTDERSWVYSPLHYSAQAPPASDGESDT
Sequence of Serine/threonine-protein kinase ICK (Homo sapiens) (Q9UPZ9 whole entry): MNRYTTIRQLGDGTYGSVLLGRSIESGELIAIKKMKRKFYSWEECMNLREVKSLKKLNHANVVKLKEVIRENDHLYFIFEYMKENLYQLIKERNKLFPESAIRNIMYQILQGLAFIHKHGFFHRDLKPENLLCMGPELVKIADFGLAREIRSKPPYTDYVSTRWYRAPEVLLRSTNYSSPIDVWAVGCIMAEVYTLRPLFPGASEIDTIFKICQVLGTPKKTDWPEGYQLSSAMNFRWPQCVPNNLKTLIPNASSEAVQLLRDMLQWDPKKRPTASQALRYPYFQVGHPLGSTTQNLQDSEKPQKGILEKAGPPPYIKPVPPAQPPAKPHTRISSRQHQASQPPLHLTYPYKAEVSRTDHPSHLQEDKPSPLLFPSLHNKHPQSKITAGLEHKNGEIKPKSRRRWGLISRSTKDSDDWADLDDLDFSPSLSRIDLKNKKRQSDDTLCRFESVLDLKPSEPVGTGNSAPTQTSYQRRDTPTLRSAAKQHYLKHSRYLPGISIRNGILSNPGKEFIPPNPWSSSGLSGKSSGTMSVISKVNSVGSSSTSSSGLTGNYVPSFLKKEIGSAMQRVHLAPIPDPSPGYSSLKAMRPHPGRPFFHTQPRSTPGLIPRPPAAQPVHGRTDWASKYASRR
Sequence of G protein-coupled receptor kinase 4 (Homo sapiens) (P32298 whole entry, looked up): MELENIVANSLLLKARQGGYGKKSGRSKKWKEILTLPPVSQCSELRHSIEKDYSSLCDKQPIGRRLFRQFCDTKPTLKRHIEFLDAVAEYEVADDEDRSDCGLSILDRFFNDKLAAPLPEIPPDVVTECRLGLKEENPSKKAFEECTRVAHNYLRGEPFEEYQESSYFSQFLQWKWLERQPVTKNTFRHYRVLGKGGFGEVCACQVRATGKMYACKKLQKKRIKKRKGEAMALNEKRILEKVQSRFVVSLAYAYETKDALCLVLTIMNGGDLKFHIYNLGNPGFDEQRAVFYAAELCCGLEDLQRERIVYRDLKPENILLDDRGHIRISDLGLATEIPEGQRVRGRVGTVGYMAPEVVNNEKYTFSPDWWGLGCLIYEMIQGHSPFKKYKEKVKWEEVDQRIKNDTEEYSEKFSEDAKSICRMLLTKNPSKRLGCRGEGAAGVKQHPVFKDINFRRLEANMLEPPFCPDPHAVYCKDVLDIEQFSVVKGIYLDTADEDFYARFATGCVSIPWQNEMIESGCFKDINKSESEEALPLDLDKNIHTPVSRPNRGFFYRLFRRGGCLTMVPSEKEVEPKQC

Row | SMILES | residual activity [1] | residual activity [2] | residual activity [3] | residual activity [4] | residual activity [5] | residual activity [6] | residual activity [7] | residual activity [8] | residual activity [9] | residual activity [10] | residual activity [11] | residual activity [12] | residual activity [13] | residual activity [14] | residual activity [15] | residual activity [16] | residual activity [17] | residual activity [18] | residual activity [19] | residual activity [20] | other results
1 | O=C(Nc1cccnn1)N1CC(C/C=C/c2cncc(Oc3ccc(C(F)(F)F)cn3)n2)C1 | 60% | 94% | 100% | 100% | 100% | 100% | 100% | 100% | 74% | 80% | 64% | 100% | 94% | 100% | 66% | 100% | 100% | 100% | 100% | 100% | residual activity [21]: 100%; residual activity [22]: 96%; residual activity [23]: 81%; residual activity [24]: 93%; residual activity [25]: 91%; residual activity [26]: 100%; residual activity [27]: 100%; residual activity [28]: 92%; residual activity [29]: 65%; residual activity [30]: 100%; residual activity [31]: 73%; residual activity [32]: 82%; residual activity [33]: 79%; residual activity [34]: 0%; residual activity [35]: 90%; inhibition [36]: -2.98%; inhibition [37]: 1.89%; inhibition [38]: 0.26%; inhibition [39]: -0.59%
2 | O=C(Nc1cccnn1)N1CCC(=Cc2cccc(Oc3ccc(C(F)(F)F)cn3)c2)CC1 | 100% | 81% | 100% | 71% | 92% | 88% | 97% | 98% | 100% | 91% | 75% | 80% | 74% | 100% | 100% | 95% | 100% | 100% | 100% | 100% | residual activity [21]: 100%; residual activity [22]: 77%; residual activity [23]: 100%; residual activity [24]: 91%; residual activity [25]: 85%; residual activity [26]: 66%; residual activity [27]: 100%; residual activity [28]: 87%; residual activity [29]: 69%; residual activity [30]: 71%; residual activity [31]: 100%; residual activity [32]: 42%; residual activity [33]: 100%; residual activity [34]: 92%; residual activity [35]: 100%; inhibition [36]: 42.1%; inhibition [37]: 64.6%; inhibition [38]: 27.5%; inhibition [39]: 23.5%
